Data from patent US20220016215A1, “GIP RECEPTOR AGONIST PEPTIDE COMPOUNDS AND USES THEREOF” (TAKEDA PHAARMACEUTICAL COMPANY LIMITED, priority 2018, published 2022).

Assays:
human GIPR = molecular target: T1, human GIPR (Homo sapiens, UniProt P48546); experiment: Agonist activity on human GIPR, CRE-luciferase reporter assay (increase in intracellular cAMP as indicator); type: cell-based
T1 construct: expressed in transfected cells
T1 sequence (P48546 22-466): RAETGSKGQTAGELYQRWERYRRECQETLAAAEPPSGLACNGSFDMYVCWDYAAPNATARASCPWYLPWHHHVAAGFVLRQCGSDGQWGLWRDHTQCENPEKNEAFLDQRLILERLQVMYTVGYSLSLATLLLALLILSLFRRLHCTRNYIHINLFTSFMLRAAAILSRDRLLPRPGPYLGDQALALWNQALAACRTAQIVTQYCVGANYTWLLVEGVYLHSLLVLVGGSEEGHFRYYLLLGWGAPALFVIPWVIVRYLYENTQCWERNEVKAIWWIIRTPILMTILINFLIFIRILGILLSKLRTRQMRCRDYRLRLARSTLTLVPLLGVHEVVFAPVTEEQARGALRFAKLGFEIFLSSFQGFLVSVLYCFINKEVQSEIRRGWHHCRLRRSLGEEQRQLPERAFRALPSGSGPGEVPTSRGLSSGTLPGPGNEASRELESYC
Procedure, shortened: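 CHO-K1 cells carrying CRE-luciferase and stably expressing human GIPR, 5×10^3 cells/well, exposed to compound for 4 hours at 37° C.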

[1] = tested on: morphine (0.6 mg/kg, s.c.)-induced emesis in ferrets; experiment: Morphine-induced acute emetic model in male ferrets; type: in vivo, ferret
Procedure, shortened: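 Male ferrets (4 per group) received peptide at 10 or 30 nmol/kg s.c. in 0.09% Tween 80/10% DMSO/saline, or vehicle. Morphine 0.6 mg/kg s.c. was given 4 or 120 h later, and abdominal contractions, vomiting, licking and fidgeting were recorded for up to 360 min.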

human GLP-1R = human GLP-1R (Homo sapiens, UniProt P43220); experiment: Agonist activity on human GLP-1R, CRE-luciferase reporter assay (increase in intracellular cAMP as indicator); type: cell-based; set-up: expressed in transfected cells; details: hGLP-1R/CRE-luc/CHO-K1 cells, 4 h incubation; read-out: GLP1R EC50 nM (B)
Text: The human GIPR gene having an identical sequence to Genebank Accession No. U39231 is cloned into a pMSRα-neo vector to prepare hGIPR/pMSRα-neo.
(3) Construction of Reporter Plasmid
Four copies of a cAMP responsive sequence and a Zeocin resistance gene are transferred to pGL3(R2.2)-Basic Vector (Promega) to construct a Cre-luc(Zeo) reporter plasmid.
(5) Construction of Expression Plasmid of Human GLP-1R Gene
The human GLP-1R gene having an identical sequence to Genebank Accession No. NM_002062 is cloned into a pIRESneo3 vector to prepare hGLP-1/pIRESneo3.
(6) Transfer of Human GLP-1R Gene and Reporter Plasmid to CHO-K1 Cell and Obtaining of Expressing Cell
The Cre-luc (Zeo) obtained in (3) and the plasmid hGLP-1/pIRESneo3 obtained in (5) transferred to the CHO-K1 cell to obtain a transformant. Subsequently, the cell line inducing the luciferase expression, hGLP-1R/CRE-luc/CHO-K1 cell, is selected from the obtained transformant by adding GLP-1.
The GLP-1R agonist activity is assayed in the same manner as above using the hGLP-1R/CRE-luc/CHO-K1 cell.

[2] = ferret, morphine 0.6 mg/kg s.c. 0.5 h after drug, 128 μg/kg s.c.
[3] = ferret, morphine 0.6 mg/kg s.c. 0.5 h after drug, 128 μg/kg s.c., non-responders counted as 30 min

Chain of human GLP-1R (P43220 24-463): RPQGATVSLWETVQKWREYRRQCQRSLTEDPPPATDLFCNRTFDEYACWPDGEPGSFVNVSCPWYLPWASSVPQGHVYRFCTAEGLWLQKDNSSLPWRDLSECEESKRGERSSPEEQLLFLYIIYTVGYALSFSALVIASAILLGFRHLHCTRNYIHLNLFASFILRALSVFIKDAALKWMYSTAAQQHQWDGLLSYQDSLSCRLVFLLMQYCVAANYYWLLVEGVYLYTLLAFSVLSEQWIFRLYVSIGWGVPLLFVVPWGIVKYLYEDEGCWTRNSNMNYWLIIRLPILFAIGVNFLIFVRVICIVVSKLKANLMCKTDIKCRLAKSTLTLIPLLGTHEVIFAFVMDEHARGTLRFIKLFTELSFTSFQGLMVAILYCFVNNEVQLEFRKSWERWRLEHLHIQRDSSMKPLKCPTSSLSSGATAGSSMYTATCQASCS

## CC[C@H](C)[C@H](NC(=O)[C@H](CO)NC(=O)[C@H](Cc1ccc(O)cc1)NC(=O)[C@H](CC(=O)O)NC(=O)[C@H](CO)NC(=O)[C@@H](NC(=O)[C@H](Cc1ccccc1)NC(=O)[C@@H](NC(=O)CNC(=O)[C@@H]1CCCN1C(=O)[C@H](C)NC(=O)[C@@H](N)Cc1ccc(O)cc1)[C@@H](C)O)[C@@H](C)CC)C(=O)N[C@@H](C)C(=O)N[C@@H](CCSC)C(=O)N[C@@H](CC(=O)O)C(=O)N[C@@H](CCCCN)C(=O)N[C@H](C(=O)N[C@@H](Cc1c[nH]cn1)C(=O)N[C@@H](CCC(N)=O)C(=O)N[C@@H](CCC(N)=O)C(=O)N[C@@H](CC(=O)O)C(=O)N[C@@H](Cc1ccccc1)C(=O)N[C@H](C(=O)N[C@@H](CC(N)=O)C(=O)N[C@@H](Cc1c[nH]c2ccccc12)C(=O)N[C@@H](CC(C)C)C(=O)N[C@@H](CC(C)C)C(=O)N[C@@H](C)C(=O)N[C@@H](CCC(N)=O)C(=O)N[C@@H](CCCCN)C(=O)N1CCC[C@H]1C(=O)N[C@@H](CO)C(=O)N[C@@H](CO)C(=O)NCC(=O)N[C@@H](C)C(=O)N1CCC[C@H]1C(=O)N1CCC[C@H]1C(=O)N1CCC[C@H]1C(=O)N[C@@H](CO)C(N)=O)C(C)C)[C@@H](C)CC [Compound 12]
Human GIPR; GLP1R EC50 / GIPR EC50
  Selectivity Ratio (B/A): >23,810
Human GIPR; hGIPR/CRE-LUC/CHO-K1 cells, 4 h incubation, read-out: GIPR EC50 nM (A)
  EC50: 0.042 nM
[1]; [2]
  Emesis: Duration: 1.5 ± 2.4 min
  Emesis: Frequency: 3.8 ± 5.7
  Emesis: No. of animals (responder/used): 2/4
  Fidget: Duration: 1.3 ± 1.9 min
  Fidget: Frequency: 0.8 ± 1.0
  Fidget: No. of animals (responder/used): 2/4
  Licking: Duration: 1.5 ± 1.7 min
  Licking: Frequency: 1.3 ± 1.0
  Licking: No. of animals (responder/used): 3/4
  Retching: Duration: 1.5 ± 2.4 min
  Retching: Frequency: 3.3 ± 5.3
  Retching: No. of animals (responder/used): 2/4
  Vomiting: Duration: 0.5 ± 0.6 min
  Vomiting: Frequency: 0.5 ± 0.6
  Vomiting: No. of animals (responder/used): 2/4
[1]; [3]
  Emesis: Latency: 18.3 ± 13.7 min
  Fidget: Latency: 18.3 ± 13.7 min
  Licking: Latency: 13.8 ± 11.3 min
  Retching: Latency: 18.3 ± 13.7 min
  Vomiting: Latency: 19.5 ± 12.1 min
[1]; male ferrets, 30 nmol/kg s.c. 30 minutes before morphine 0.6 mg/kg s.c.
  Attenuation of morphine-induced emesis (in words): completely attenuated
[1]; male ferrets, summary of the morphine experiments
  Comment: Anti-Emetic Activity (inhibition) on morphine-induced emesis: partial inhibition
Human GLP-1R
  EC50: > 1000 nM
